Source: patent US20250145576A1, “CATHEPSIN K INHIBITOR, AND PREPARATION METHOD THEREFOR AND USE THEREOF” (SHANDONG NEW TIME PHARMACEUTICAL CO., LTD., priority 2022, published 2025)

Legend:
Cathepsin K = Cathepsin K (Homo sapiens (Human), UniProt P43235); assay: Cat K inhibitor screening kit, AFC substrate fluorescence; assay type: biochemical
Experimental: Reagent information: Cat K inhibitor screening kit: batch number, 6L23K01500; supplier, BiVision. Drug preparation: compounds were dissolved in DMSO and prepared into 10 mM stock solutions. When in use, the stock solutions were prepared into the required concentrations by using a buffer.
Cathepsin K (CTSK, EC 3.4.22.38) is a lysosomal cysteine protease, participates in osteoclastic bone remodeling and resorption, and can further degrade collagen, gelatin and elastin. The cathepsin K inhibitor screening kit from Biovision uses the ability of the active cathepsin K to cleave a synthetic AFC-based peptide substrate to release AFC and the AFC can be easily quantified by using a fluorometer or fluorescent microplate reader. In the presence of a specific cathepsin K specific inhibitor, the cleavage of the substrate is reduced/eliminated, resulting in a reduction or complete loss of AFC fluorescence. The simple and high-throughput adaptive assay kit can be used to screen/study/characterize a potential inhibitor of the cathepsin K.
(§1) 20 μL of a buffer, a Cat K inhibitor and test compounds (1 μM and 10 μM) were added to 96-well plates to serve as an EC well, an IC well and an S well, respectively; 50 μL of a Cat K enzyme solution was added into all the wells respectively and the mixture was incubated for 10-15 min at room temperature to establish an enzyme inhibitor complex; 30 μL of a Cat K substrate solution was added into all the wells and the mixture was incubated for 30-60 min at room temperature; and the final volume of the reaction was 100 μL.
The screening method was the same as 1.1, the concentrations of the test compounds were set between 0.1 nM and 10 μM, 4-5 concentrations were selected for detection, IC50 curves were drawn, and IC50 values were calculated.

[1] = Intrinsic clearance rate and half-life in rat liver microsomes; assay type: in vitro ADME; conditions: for half-life: rat
Experimental: 1 mL of a dichloromethane solution was respectively added into centrifuge tubes filled with test substance powders K2 (molecular formula C23H27N3O4, 4.6 mg), K3 (molecular formula C23H26FN3O4, 5.0 mg) and K4 (molecular formula C23H25F2N3O4, 5.6 mg) for dissolving, and subjected to ultrasonic treatment for 30 min to obtain a K2 stock solution with the mass concentration of 4.6 mg/mL, a K3 stock solution with the mass concentration of 5.0 mg/mL and a K4 stock solution with the mass concentration of 5.6 mg/mL. The stock solutions were sealedly stored in a refrigerator at −20° C. for later use. Before use, the stock solutions were gradually diluted with methanol to corresponding mass concentration to respectively prepare 0.02, 0.05, 0.22, 0.49, 0.96, 2.37 and 4.90 ng/mL of K2 series standard sample working solutions, 0.02, 0.05, 0.10, 0.19, 1.00, 2.01 and 4.93 ng/mL K3 series standard sample working solutions, and 0.10, 0.20, 0.53, 0.96, 2.42, 5.10 and 10.10 ng/mL K4 series standard sample working solutions.
5 μL of the test drugs, 2 μL of rat liver microsomes and 468 μL of a PBS buffer solution were taken by using a pipette and prepared a premixed solution. The premixed solution was incubated for 5 min in a water bath kettle at 37° C., 47.5 μL of the premixed solution was taken after the incubation was finished, and the premixed solution, 100 μL of ice-cold acetonitrile and 2.5 μL of a PBS buffer solution were added to another new tube after to be gently mixed evenly to obtain a control group. The reaction was started by adding 22.5 μL of a NADPH solution to the remaining premixed solution, the reaction solution was gently pipetted, and the reaction was stopped by immediately taking 50 μL of the premixed solution and 100 μL of acetonitrile in a new tube. Then the incubation liquid was put into the water bath for incubation, 50 μL of the incubation liquid was respectively taken at 5 min, 10 min, 20 min, 30 min, 45 min, 60 min and 90 min, and the reaction was terminated by adding 100 μL of acetonitrile. The reaction solution was centrifuged at 12,000 r/min for 10 min, and the supernatant was taken and detected on a machine.
• Chromatographic column: Hypersil GOLD 100*2.1 mm 3 μm liquid chromatography column • Mobile phase: 0.1% formic acid aqueous solution (A); and 100% acetonitrile (B) • Gradient elution (0-1 min: 50% B, 1-5 min: 50% B-90% B, 5-7 min: 90% B, 7-7.1 min: 50% B, and 7.1-10 min: 50% B) • Flow rate: 0.3 ml/min; column temperature: 40° C.; and injection volume: 5 μL […]
Sample solutions were subjected to sample injection analysis under the chromatographic and mass spectrometry conditions, and the peak areas were recorded. […]

Cathepsin S = assay: Screening of Cathepsin S, fluorescence; assay type: biochemical; conditions: >> inhibition rate did not exceed 20% at test concentration; > greater than 35%; ≈ about 50%; < less than 50%
Experimental: as §1, with “10 μL of” for “20 μL of”, “a Cat S inhibitor and” for “a Cat K inhibitor and”, “a […]” for “a Cat K enzyme solution”, “inhibitor complex; 40 μL of” for “inhibitor complex; 30 μL of”, “a Cat S substrate solution” for “a Cat K substrate solution”
(§2) The screening method was the same as above, the concentrations of the test compounds were set between 0.1 nM and 10 μM, 4-5 concentrations were selected for detection, IC50 curves were drawn, and IC50 values were calculated.

Cathepsin B = Cathepsin B (Homo sapiens (Human), UniProt P07858); assay: Screening of Cathepsin B, fluorescence; assay type: biochemical; conditions: >> inhibition rate did not exceed 20% at test concentration; > greater than 35%; ≈ about 50%; < less than 50%
Experimental: as §1, with “10 μL” for “20 μL”, “Cat B” for “Cat K”, “complex; 40” for “complex; 30”
as §2

ICR mice = assay: In-vivo toxicity study, single and multiple i.p. administration; conditions: for body weight vs vehicle group: all P>0.05
Experimental: Male ICR mice of 6-8 weeks were used as experimental subjects and randomly divided according to body weight after adaptive feeding for one week. Then compounds of different concentrations were prepared and used for single-administration and multiple-administration experiments by intraperitoneal injection (i.p), and a vehicle of the same component was used as a reference.
During this period, the body weight of the mice was measured daily. […] In the multiple-administration experiment, the administration doses of 50 mg/kg and 25 mg/kg were selected for administration at the frequency of once a day.

C4-2B cells = assay: Migration, invasion and adhesion of C4-2B cells; assay type: cell-based; conditions: preliminary

Sequence of Cathepsin K (P43235 115-329): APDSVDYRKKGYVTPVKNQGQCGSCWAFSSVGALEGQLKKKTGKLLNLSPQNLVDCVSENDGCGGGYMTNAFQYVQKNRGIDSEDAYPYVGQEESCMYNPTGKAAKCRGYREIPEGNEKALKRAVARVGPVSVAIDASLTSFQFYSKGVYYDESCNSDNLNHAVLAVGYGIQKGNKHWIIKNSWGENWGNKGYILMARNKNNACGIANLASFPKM

IC50 (Cathepsin K) [nM] | half-life [1] [min] | Compound | Cat S/K ratio of inhibitory activities (Cathepsin S) | Cat B/K ratio of inhibitory activities (Cathepsin B) | other results
10 to 100 | 46.6 | O=C1COCC1NC(=O)[C@@H]1CCCC[C@H]1C(=O)N1CCc2[nH]c3ccccc3c2C1 (stereo partly drawn) [Compound K20, (1R,2R)-2-(2,3,4,5-tetrahydro-1H-pyrido[4,3-b]indole-2-carbonyl)-N-(4-oxotetrahydrofuran-3-yl)-cyclohexane-1-carboxamide] |  |  | 
10 to 100 | 42.4 | O=C1COC[C@@H]1NC(=O)[C@@H]1CCCC[C@H]1C(=O)N1CCc2c([nH]c3c(F)cccc23)C1 [Compound K21, (1R,2R)-2-(8-fluoro-2,3,4,9-tetrahydro-1H-pyrido[3,4-b]indole-2-carbonyl)-N—((S)-4-oxotetrahydrofuran-3-yl)cyclohexane-1-carboxamide] | >710 | >710 | 
 |  | CC(C)(C)CN(Cc1ccc(-c2ccc(F)cc2)cc1)c1nccc(C#N)n1 [Compound K4, 2-[(2,2-dimethylpropyl){[4-(4-fluorophenyl)phenyl]methyl}amino]pyrimidine-4-carbonitrile] |  |  | reduction of clearance rate compared with Ref-03 [1]: 2 times
10 to 100 | 88.5 | O=C1COC[C@@H]1NC(=O)[C@@H]1CCCC[C@H]1C(=O)N1CCc2c([nH]c3c(F)cc(F)cc23)C1 [Compound K22, (1R,2R)-2-(6,8-difluoro-2,3,4,9-tetrahydro-1H-pyrido[3,4-b]indole-2-carbonyl)-N—((S)-4-oxotetrahydrofuran-3-yl)cyclohexane-1-carboxamide] |  |  | 

Compound | IC50 (Cathepsin K) [nM] | half-life [1] [min] | Cat S/K ratio of inhibitory activities (Cathepsin S) | Cat B/K ratio of inhibitory activities (Cathepsin B) | other results
CN1CCN(c2nc(-c3ccc(CN(CC(C)(C)C)c4nccc(C#N)n4)cc3)cs2)CC1 [Compound K18, 2-((4-(2-(4-methylpiperazin-1-yl)thiazol-4-yl)benzyl) (neopentyl)amino)pyrimidine-4-carbonitrile] | 10 to 100 |  | >>5,780 | >>5,780 | in-vivo toxicity (overall) (ICR mice; ICR mice): relatively low in-vivo toxicity; body weight vs vehicle group (ICR mice; i.p. 50 mg/kg and 25 mg/kg once a day, one week): No significant difference; histopathology of liver, kidneys and heart vs vehicle group (ICR mice; multiple administration 50 mg/kg and single administration 500 mg/kg): no obvious pathological change was observed; body weight vs vehicle group (ICR mice; single i.p. administration 500 mg/kg and 300 mg/kg): No significant difference; migration, invasion and adhesion of C4-2B cells (C4-2B cells): inhibit the migration, invasion and adhesion processes of the C4-2B cells in a concentration-dependent manner
